The subject of series [1] is Human Retinal Microvascular Endothelial (hRMVE) Cells (hRMVEC). Kind of series: Growth inhibition of hRMVE cells under VEGF stimulation (MTT assay). The series is classed as cell-based. The settings on record: recombinant human VEGF, 48 hours, read-out: Cell Growth Inhibition Activity.
The nature of series [2]: Solubility test in 0.1% phosphate buffer solution (pH 7.0). The series is classed as physicochemical. Particulars: for solubility: aqueous buffer, thermodynamic from solid, 0.1% phosphate buffer solution (pH 7.0), room temperature overnight. As to the method: The mixture was subjected to ultrasonic irradiation for 30 seconds, and then shaken at room temperature overnight. The resulting suspension was left at rest at room temperature for 30 minutes, then filtered through a chromatography disc (0.20 μm) to prepare a sample solution. The sample solution and the standard solution were analyzed by LC-MS (product name: ACQUITY UPLC H-CLASS SYSTEM and Xevo TQ-S, produced by Nihon Waters K.K.), and a solubility was calculated from the obtained peak area value by an external standard method.

A short description of series [3]: Drug penetrating test to retina/choroid after instillation. The series is classed as in vivo, rabbit (Japanese white rabbit). The settings on record: rabbit, 2 hours after instillation; for concentration at 2 h: Japanese white, retina/choroid, topical, 50 μL/eye of 0.25% suspension, 0.25% suspension eye drop 50 μL/eye, average ± standard deviation; for drug penetrating concentration in the retina/choroid compared with compound B: p≦0.05. As to the method: For the compounds 8, 27 and B produced in Examples, drug penetrating concentrations to retina/choroid tissues after instillation were measured. […] In order to measure the drug concentration in the retina/choroid tissues, the eye drop was administered to rabbits (Japanese white rabbit) at 50 μL/eye, the rabbits were euthanized 2 hours after instillation, and the eyeballs were excised. The excised eyeballs were frozen with liquid nitrogen, split into two parts along the equatorial plane, and then the retina/choroid tissues were sampled from the posterior eye segment. In order to extract the compound from the sampled tissues, the tissues were finely cut in methanol to prepare a lysate, and subsequently the lysate was centrifuged to collect the supernatant. To the extracted solution of the compound from the supernatant, an equivalent amount of ultrapure water was added, and the solution was filtered through a membrane filter (0.22 μm), and the filtrate was designated as a final measurement solution. The drug concentration in the filtrate was analyzed by liquid chromatography mass spectrometry (LC/MS/MS), and the compound concentration in the retina/choroid tissues was calculated from the peak area value obtained by an external standard method. Analysis conditions of LC/MS/MS are as below. For the compound concentration in the retina/choroid, null hypothesis test was carried out using JMP (registered trademark) (SAS Institute Inc.), the outlier was excluded, and then the average value±standard deviation was used.

In brackets after ≈: the same amount, converted by molar mass.

As to `CNC(=O)c1ccccc1Sc1ccc2c(C#Cc3ccc(NCCOCCOCCOC)cc3)n[nH]c2c1` [Compound 27, 2-[(3-{[4-({2-[2-(2-methoxyethoxy)ethoxy]ethyl}amino)phenyl]ethynyl}-1H-indazol-6-yl)thio]-N-methylbenzamide], the IC50 in series [1] worked out at 1.2 nM. Moreover, the solubility (as a rule, how much of the substance goes into solution per volume) in series [2] worked out at 0.48 µg/mL (≈ 0.881 µM). In addition, in series [3], the concentration at 2 h was 1.62 ± 0.68 ng/g and the “drug penetrating concentration in the retina/choroid compared with compound B” value was “significantly higher”.

As for `CNC(=O)c1ccccc1Sc1ccc2c(/C=C/c3ccccn3)n[nH]c2c1` [Compound A, 6-[2-(methylcarbamoyl)phenylsulfanyl]-3-E-[2-(pyridine-2-yl)ethenyl]indazole, reference compound], the “photostability in solution (in words)” value is reported as “poor photostability”. Moreover, the solubility in series [2] came out at 0.045 µg/mL (≈ 0.116 µM). Also, the “solubility in aqueous solution (in words)” value in series [2] (aqueous solution) is recorded as “low”.

In the case of `CNC(=O)c1ccccc1Sc1ccc2c(C#Cc3ccccn3)n[nH]c2c1` [Compound B, 6-[2-(methylcarbamoyl)phenylsulfanyl]-3-[2-(pyridine-2-yl)ethynyl]indazole, reference compound], in series [1], the IC50 was determined as 1.6 nM. This compound also registered a solubility in series [2] of 0.084 µg/mL (≈ 0.218 µM). In series [3], the concentration at 2 h came out at 0.51 ± 0.1 ng/g.

In the case of `CNC(=O)c1ccccc1Sc1ccc2c(C#Cc3ccc(NC(=O)NCCOCCOCCOC)cc3)n[nH]c2c1` [Compound 8, 2-[(3-{[4-(3-{2-[2-(2-methoxyethoxy)ethoxy]ethyl}ureido)phenyl]ethynyl}-1H-indazol-6-yl)thio]-N-methylbenzamide], the IC50 in series [1] worked out at 1.2 nM. The compound further registered a solubility in series [2] of 1 µg/mL (≈ 1.7 µM). In series [3], the concentration at 2 h was found to be 2.6 ± 1.04 ng/g and the “drug penetrating concentration in the retina/choroid compared with compound B” value was “significantly higher”.

For the origin of these results see patent US9617222B1, “Alkynyl indazole derivative and use thereof” (SENJU PHARMACEUTICAL CO., LTD., priority 2014, dated 2017).
